For assay [1], the target named is T1, human CTPS1 (Homo sapiens, UniProt P17812).
T1 construct: purchased Proteros biostructures GmbH
T1 sequence (P17812 1-591): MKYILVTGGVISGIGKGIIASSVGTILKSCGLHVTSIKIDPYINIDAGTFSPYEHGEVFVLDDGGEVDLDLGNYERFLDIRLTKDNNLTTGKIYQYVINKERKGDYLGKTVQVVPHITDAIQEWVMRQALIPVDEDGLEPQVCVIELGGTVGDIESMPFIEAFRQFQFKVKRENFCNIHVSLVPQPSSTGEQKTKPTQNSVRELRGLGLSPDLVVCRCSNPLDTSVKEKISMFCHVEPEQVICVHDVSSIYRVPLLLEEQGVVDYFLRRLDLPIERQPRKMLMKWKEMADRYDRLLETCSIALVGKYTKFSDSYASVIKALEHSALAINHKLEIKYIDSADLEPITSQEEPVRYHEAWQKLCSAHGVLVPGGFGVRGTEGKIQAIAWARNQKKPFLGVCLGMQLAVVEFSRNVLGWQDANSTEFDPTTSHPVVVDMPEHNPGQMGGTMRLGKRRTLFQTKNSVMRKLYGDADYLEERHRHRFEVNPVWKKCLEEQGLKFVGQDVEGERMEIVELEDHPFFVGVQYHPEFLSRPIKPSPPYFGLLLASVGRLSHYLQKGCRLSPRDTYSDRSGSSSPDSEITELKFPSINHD
Nature of the assay: Human CTPS1 enzyme inhibition (ADP-Glo Max assay). The class given is biochemical. Particulars: human full length CTPS1, 25° C., read-out: CTPS1 (Human CTPS1 Enzyme Inhibition, IC50 grouped by potency range). Summed up: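 Full-length C-terminal FLAG-His-tagged CTPS1, preincubated 10 min at 25 °C with compound in 50mM Tris pH 8.0, 10mM MgCl2, 0.01% Tween-20, 2mM L-cysteine. Started with ATP 0.31mM, GTP 0.034mM, UTP 0.48mM, L-glutamine 0.186mM in substrate mix, run within linear phase at 25 °C. ADP via ADP-Glo Max luminescence; IC50 from % inhibition curve.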

For assay [2], the system named is human CTPS1. Nature of the assay: RapidFire/MS-based enzyme selectivity assay, human CTPS1. Particulars: calculated from the CTPS1 and CTPS2 IC50 values. In kind it is biochemical. On the procedure:
The enzyme inhibitory activities against each target isoform of interest may be determined for the compounds of the invention using an optimised RapidFire high-throughput mass spectrometry (RF/MS) assay format. RF/MS assays for both human CTPS1 and CTPS2 may be performed in assay buffer consisting of 50mM HEPES (Merck), 20mM MgCl2, 5mM KCI, 1mM DTT, 0.01% Tween-20, pH to 8.0 accordingly. Human full-length active C-terminal FLAG-His-tag CTPS1 (UniProtKB - P17812, CTPS[1-591]-[…]) may be obtained from Proteros biostructures GmbH. Human full length active C-terminal FLAG-His-Avi tagged CTPS2 (UniProtKB-Q9NRF8, CTPS2 [1-586]- […]) may be obtained from Harker Bio.
Human CTPS (1 or 2) protein may be prepared in lx assay buffer to the final working protein concentration required for the reaction. A 2uL volume per well of 2× CTPS (1 or 2) protein may be mixed with 40nL of compound using acoustic (ECHO) delivery and incubated for 10 minutes at 25° C. Each isoform enzymatic reaction may be subsequently initiated by addition of 2uL per well of a 2× substrate mix in assay buffer. For hCTPS1: ATP (0.3mM), UTP (0.2mM), GTP (0.07mM) and L-glutamine (0.1mM). For hCTPS2: ATP (0.1mM), UTP (0.04mM), GTP (0.03mM) and L-glutamine (0.1mM). Each mixture may be incubated for an appropriate amount of time per isoform within the determined linear phase of the reaction at 25° C. A 60uL volume of stop solution (1% formic acid with 0.5uM ^13C9-^15N3-CTP in H2O) may be added and the plate immediately heat-sealed and centrifuged for 10 minutes at 4,000rpm. Following centrifugation, plates may be loaded onto the Agilent RapidFire microfluidic solid phase extraction system coupled to an AP14000 triple quadrupole mass spectrometer (RF/MS) for analysis.
In all cases, the enzyme converts UTP to CTP. Highly specific and sensitive multiple reaction monitoring (MRM) MS methods may be optimised for the detection of the enzymatic reaction product, CTP, and the stable isotope labelled product standard ^13C9-^15N3-CTP. Readout for data analysis may be calculated as the ratio between the peak area of the product CTP and the internal standard ^13C9-^15N3-CTP. For data reporting, the following equation may be used:
[formula] (R=ratio/readout, P=product signal area, IS=internal standard signal area)
For each screening plate, the means of the negative (DMSO) and positive control values were used for the calculation of the respective assay window (S/B) and Z′ values. The median of the respective control values was used for calculation of percent inhibition according to the following equation:
[formula] (I=Inhibition, Rneg=median of negative control readout values, Rpos=median of positive control readout values, Rsample=sample readout value)
Percentage inhibition was then plotted against compound concentration, and the 50% inhibitory concentration (IC50) was determined from the resultant concentration-response curve.
Fold selectivity between CTPS1 and CTPS2 was subsequently calculated according to the following equation: […]

The values below come from US20210024507A1, “Compounds” (Step Pharma S.A.S., priority 2018, published 2021).

Each structure is given as a SMILES string.

The term IC50 denotes the concentration that inhibits the measured activity by half. As for `CCC(C(=O)Nc1ccc(-c2cncc(OC(C)C)n2)cn1)c1ccnc(NS(=O)(=O)C2CC2)n1` (stereo not shown) [P89, 2-(2-(cyclopropanesulfonamido)pyrimidin-4-yl)-N-(5-(6-isopropoxypyrazin-2-yl)pyridin-2-yl)butanamide], in assay [1], the IC50 is no more than 100 nM. Further, the “Selectivity (fold selectivity between CTPS1 and CTPS2)” value in assay [2] is “+++ (>60 fold (+++))”.

Regarding `CCC(C(=O)Nc1ccc(-c2cncc(OCC(F)(F)F)n2)cc1)c1ccnc(NS(=O)(=O)C2CC2)n1` (stereo not shown) [P108, 2-(2-(cyclopropanesulfonamido)pyrimidin-4-yl)-N-(4-(6-(2,2,2-trifluoroethoxy)pyrazin-2-yl)phenyl)butanamide], in assay [1], the IC50 was no more than 100 nM. In assay [2], the “Selectivity (fold selectivity between CTPS1 and CTPS2)” value is reported as “+++ (>60 fold (+++))”.

`CCOc1cncc(-c2ccc(NC(=O)C(F)(CC)c3cncc(NS(=O)(=O)C4CC4)n3)nc2)n1` (stereo not shown) [P200, 2-(6-(cyclopropanesulfonamido)pyrazin-2-yl)-N-(5-(6-ethoxypyrazin-2-yl)pyridin-2-yl)-2-fluorobutanamide]: the IC50 in assay [1] was no more than 100 nM. Moreover, the “Selectivity (fold selectivity between CTPS1 and CTPS2)” value in assay [2] is on record as “++ (>30-60 fold (++))”.

Regarding `CCOc1cncc(-c2ccc(NC(=O)C(CC)c3cncc(NS(=O)(=O)C4CC4)n3)nc2)n1` (stereo not shown) [P201, 2-(6-(cyclopropanesulfonamido)pyrazin-2-yl)-N-(5-(6-ethoxypyrazin-2-yl)pyridin-2-yl)butanamide], in assay [1], the IC50 was no more than 100 nM. Also, in assay [2], the “Selectivity (fold selectivity between CTPS1 and CTPS2)” value is given as “+++ (>60 fold (+++))”.

`CCOc1cncc(-c2ccc(NC(=O)C(CC)c3ccnc(NS(=O)(=O)C4CC4)n3)cc2)n1` (stereo not shown) [P105, 2-(2-(cyclopropanesulfonamido)pyrimidin-4-yl)-N-(4-(6-ethoxypyrazin-2-yl)phenyl)butanamide]: in assay [1], the half-maximal inhibitory concentration (IC50) is no more than 100 nM. Further, the “Selectivity (fold selectivity between CTPS1 and CTPS2)” value in assay [2] is recorded as “++ (>30-60 fold (++))”.

As for `CCOc1cncc(-c2ccc(NC(=O)C(F)(CC)c3ccnc(NS(=O)(=O)C4CC4)n3)nc2)n1` (racemic) [P112, 2-(2-(Cyclopropanesulfonamido)pyrimidin-4-yl)-N-(5-(6-ethoxypyrazin-2-yl)pyridin-2-yl)-2-fluorobutanamide], the IC50 in assay [1] is no more than 100 nM. In assay [2], the “Selectivity (fold selectivity between CTPS1 and CTPS2)” value was “++ (>30-60 fold (++))”.

As to `CCOc1cncc(-c2ccc(NC(=O)C(CC)c3cncc(NS(=O)(=O)C4CC4)n3)cc2)n1` (stereo not shown) [P202, 2-(6-(cyclopropanesulfonamido)pyrazin-2-yl)-N-(4-(6-ethoxypyrazin-2-yl)phenyl)butanamide], the IC50 in assay [1] was no more than 100 nM. In addition, in assay [2], the “Selectivity (fold selectivity between CTPS1 and CTPS2)” value was “+++ (>60 fold (+++))”.

Take `CCOc1cncc(-c2ccc(NC(=O)C(CC)c3ccnc(NS(=O)(=O)C4CC4)n3)nc2)n1` (stereo not shown) [P88, 2-(2-(cyclopropanesulfonamido)pyrimidin-4-yl)-N-(5-(6-ethoxypyrazin-2-yl)pyridin-2-yl)butanamide]: the IC50 in assay [1] was no more than 100 nM. Further, in assay [2], the “Selectivity (fold selectivity between CTPS1 and CTPS2)” value is “+++ (>60 fold (+++))”.

In the case of `CCOc1cncc(-c2ccc(NC(=O)C(CCOC)c3ccnc(NS(=O)(=O)C4CC4)n3)cc2)n1` (stereo not shown) [P110, 2-(2-(cyclopropanesulfonamido)pyrimidin-4-yl)-N-(4-(6-ethoxypyrazin-2-yl)phenyl)-4-methoxybutanamide], the IC50 in assay [1] was no more than 100 nM. The “Selectivity (fold selectivity between CTPS1 and CTPS2)” value in assay [2] is listed as “++ (>30-60 fold (++))”.

Consider `CCC(C(=O)Nc1ccc(-c2cncc(OCC(F)(F)F)n2)cc1F)c1ccnc(NS(=O)(=O)C2CC2)n1` (stereo not shown) [P98, 2-(2-(cyclopropanesulfonamido)pyrimidin-4-yl)-N-(2-fluoro-4-(6-(2,2,2-trifluoroethoxy)pyrazin-2-yl)phenyl)butanamide], for which the IC50 in assay [1] is no more than 100 nM. For the same compound, the “Selectivity (fold selectivity between CTPS1 and CTPS2)” value in assay [2] is given as “+++ (>60 fold (+++))”.

Regarding `CCC(C(=O)Nc1ccc(-c2cncc(Cl)c2)cc1)c1ccnc(NS(=O)(=O)C2CC2)n1` (stereo not shown) [P1, N-(4-(5-Chloropyridin-3-yl)phenyI)-2-(2-(cyclopropanesulfonamido)pyrimidin-4-yl)butanamide], the IC50 in assay [1] lay within 100 to 1000 nM. Moreover, in assay [2], the “Selectivity (fold selectivity between CTPS1 and CTPS2)” value was “+ (2-30 fold (+))”.

On to `CCOc1cncc(-c2ccc(C(=O)NC(CC)c3ccnc(NS(=O)(=O)C4CC4)n3)c(F)c2)n1` (stereo not shown) [P216, N-(1-(2-(cyclopropanesulfonamido)pyrimidin-4-yl)propyl)-4-(6-ethoxypyrazin-2-yl)-2-fluorobenzamide], for which the IC50 in assay [1] is no more than 100 nM. The “Selectivity (fold selectivity between CTPS1 and CTPS2)” value in assay [2] was “+++ (>60 fold (+++))”.

As for `CCC(C(=O)Nc1ccc(-c2cncc(C(F)(F)F)n2)cn1)c1ccnc(NS(=O)(=O)C2CC2)n1` (stereo not shown) [P87, 2-(2-(cyclopropanesulfonamido)pyrimidin-4-yl)-N-(5-(6-(trifluoromethyl)pyrazin-2-yl)pyridin-2-yl)butanamide], the IC50 in assay [1] is no more than 100 nM. Also, in assay [2], the “Selectivity (fold selectivity between CTPS1 and CTPS2)” value is “++ (>30-60 fold (++))”.

Take `CCOc1cncc(-c2ccc(NC(=O)C(CC)c3cccc(NS(=O)(=O)C4CC4)n3)nc2)n1` (stereo not shown) [P188, 2-(6-(cyclopropanesulfonamido)pyridin-2-yl)-N-(5-(6-ethoxypyrazin-2-yl)pyridin-2-yl)butanamide]: the IC50 in assay [1] was no more than 100 nM. Also, in assay [2], the “Selectivity (fold selectivity between CTPS1 and CTPS2)” value is “++ (>30-60 fold (++))”.

Take `CCOc1cncc(-c2ccc(NC(=O)C(CC)c3ccnc(NS(=O)(=O)C4CC4)n3)c(F)c2)n1` (stereo not shown) [P96, 2-(2-(cyclopropanesulfonamido)pyrimidin-4-yl)-N-(4-(6-ethoxypyrazin-2-yl)-2-fluorophenyl)butanamide]: in assay [1], the IC50 is no more than 100 nM. Also, the “Selectivity (fold selectivity between CTPS1 and CTPS2)” value in assay [2] is “+ (2-30 fold (+))”.

Take `CCOc1cncc(-c2ccc(NC(=O)C(F)(CC)c3ccnc(NS(=O)(=O)C4CC4)n3)nc2)n1` (single isomer, unassigned) [P114, 2-(2-(cyclopropanesulfonamido)pyrimidin-4-yl)-N-(5-(6-ethoxypyrazin-2-yl)pyridin-2-yl)-2-fluorobutanamide]: in assay [1], the IC50 is no more than 100 nM. For the same compound, the “Selectivity (fold selectivity between CTPS1 and CTPS2)” value in assay [2] was “+++ (>60 fold (+++))”.

Regarding `CCOc1cncc(-c2ccc(NC(=O)C(F)(CC)c3cncc(NS(=O)(=O)C4CC4)n3)nc2)n1` (single isomer, unassigned) [P206, 2-(6-(cyclopropanesulfonamido)pyrazin-2-yl)-N-(5-(6-ethoxypyrazin-2-yl)pyridin-2-yl)-2-fluorobutanamide], the IC50 in assay [1] is no more than 100 nM. The “Selectivity (fold selectivity between CTPS1 and CTPS2)” value in assay [2] is “+++ (>60 fold (+++))”.
